In US10646567B2, “Methods of treating cancer using PD-1 axis binding antagonists and MEK inhibitors” (Genentech, Inc., priority 2011, dated 2020):

What was measured:
[1] = system: CT26 murine colorectal cells; test: CT26 colorectal tumor model, anti-PD-L1 and GDC-0973 combination (second study); type: in vivo, BALB/c mice; conditions: GDC-0973 7.5 mg/kg orally daily for 21 days
Description: For the second study, female BALB/c mice were inoculated subcutaneously in the unilateral thoracic region with 100,000 CT26 murine colorectal cells in 100 μL of HBSS:matrigel. When mice achieved a mean tumor volume of approximately 200 mm3, they were randomly assigned to one of six different treatment groups on experimental day 0 and treatment was initiated on experimental day 1.
For both studies, mice were monitored for tumor growth and body weight changes two to three times per week for the duration of the study. For measurement of tumor growth, tumor volume was measured using UltraCal-IV calipers (Model 54-10-111; Fred V. Fowler Company; Newton, Mass.) with length and width measurements perpendicular to one another, and tumor volume was calculated using the equation: Tumor Volume (mm^3)=(Length×Width^2)×0.5
Data was analyzed using R, version 2.9.2 (R Development Core Team 2008; R Foundation for Statistical Computing; Vienna, Austria), and the mixed models were fit within R using the nlme package, version 3.1-96 (Pinheiro J et al., R package version 3. 2009, 1-96). […] A mixed modeling approach was used to analyze the repeated measurement of tumor volumes from the same animals over time (Pinheiro J et al., Statistics and Computing, Springer. 2010). This approach addressed both repeated measurements and modest dropouts before study end for reasons classifiable statistically as missing at random (MAR). The fixed effect changes in log2 (volume) by time and dose are modeled as the sum of the main effects and interaction of a natural cubic regression spline basis in time with an auto-determined natural spline basis in dose. Intercepts and growth rates (slopes) were assumed to vary randomly by animal. Tumor growth inhibition as a percentage of the control-treated group (% TGI) was calculated as the percentage of the area under the fitted curve (AUC) for the respective treatment group per day in relation to the control while the control treated mice were still on study, using the equation: % TGI=100×(1−AUCdose/AUCvehicles)

[2] = system: mouse tumor cell lines (MC38, B16.F10, CT26); test: Surface MHC-I expression on mouse tumor cell lines (FACS); type: cell-based; conditions: 1 micromolar, 24 hours, compared to vehicle treated cells
Description: To determine if treatment with MEK inhibitor (MEKi) enhanced immunogenicity of mouse tumor cells similarly to human tumor cells, surface expression of MHC-I on mouse tumor cell lines treated with MEKi GDC-0973 was assayed. Briefly, mouse melanoma cell lines ([…]) and a mouse colorectal cell line (CT26) were treated with MEKi GDC-0973, G-38963 or vehicle. Briefly, cells were stimulated for 24 hours with 1 micromolar MEK inhibitor or DMSO vehicle control. Following treatment, cells were surfaced stained with an antibody against MHC-I (H-2D) and expression was assayed by subsequent FACS analysis. Labeled isotype-matched antibodies were used to determine the level of non-specific staining.

[3] = system: human peripheral blood mononuclear cells; test: Surface MHC-I expression on human PBMCs (FACS); type: cell-based; conditions: 1 μM or 3 μM, 24 hours; CD4+ T cells, CD8+ T cells, B cells, monocytes; compared to vehicle
Description: To determine if enhanced cell surface expression of MHC-I is specific to tumor cells, the effect of MEKi treatment on MHC-I expression on human peripheral blood mononuclear cells (PMBCs) was assayed. Briefly, PMBCS were isolated from whole blood by first diluting it with an equal volume of room temperature PBS and subsequent overlay onto Ficoll-filled Leucosep tubes (Greiner Bio-One). […] Gluta-MAX, sodium pyruvate, penicillin/streptomycin, and non-essential amino acids). Cells were plated in 6 well plates at 4×10^6 per well with a total of 4 ml per well. MEK inhibitor GDC-0973 was added at either 1 μM or 3 μM. Cells were harvested 24 hours later and distributed to a 96-well V-bottom plate for FACS staining. […] CD3-FITC, HLA-ABC-PE, CD4-APC, CD19-FITC, and CD14-FITC. Propidium iodide was included to exclude dead cells. Samples were run on a BD FACSCaliber flow cytometer and data was analyzed using FlowJo software (Tree Star, Inc.).

[4] = system: human monocyte-derived dendritic cells; test: Maturation and activation of monocyte-derived dendritic cells with anti-CD40 (FACS); type: cell-based; conditions: for frequency of DCs expressing surface markers of DC maturation and activation: increasing concentrations 0.001 μM to 10 μM, anti-CD40 co-stimulation
Description: Briefly, human monocytes were purified from whole blood using StemCell Technologies human monocyte RosetteSep as per manufacturer's instructions. Monocytes were seeded in T175 flasks at approximately 0.5-1.0×10^6 per ml in 50 ng/ml human GM-CSF and 100 ng/ml human IL-4 for 7 days total, with half-media exchanges every 2 days. […] MEK inhibitors and BRAF inhibitor were titrated 10-fold from 10 μM to 0.001 μM such that the final culture concentration was 0.5% DMSO in a total volume of 200 μl per well. Forty-eight hours later, cells were harvested and transferred to a 96-well V-bottom plate. […] HLA-DR,-DP,-DQ-FITC, HLA-ABC-PE, CD83-APC, CD14-FITC, CD80-PE, and CD86-APC. Propidium iodide was included to exclude dead cells. Samples were run on a BD FACSCaliber flow cytometer and data was analyzed using FlowJo software (Tree Star, Inc.).

[5] = system: human CD8+ T cells; test: CD8+ T cell proliferation (3H-thymidine); type: cell-based; conditions: for T cell receptor induced proliferation, anti-CD3 stimulation: 0.01 μM MEKi; for T cell activation, co-stimulation with anti-CD3 and anti-CD28: 10 μM to 0.001 μM MEKi; for T cell proliferation, anti-CD3 stimulation: all MEKi concentrations tested (10 μM to 0.001 μM)
Description: Recent studies have shown that MEK inhibitor treatment impairs T lymphocyte function (Boni et al., Cancer Res., 70(13), 2010). To confirm that MEK inhibitor treatment impaired CD8+ T cells, T cells were treated with MEKi in combination with T cell stimulation signals and assayed for T cell proliferation. Briefly, human CD8+ T cells were purified from whole blood using StemCell Technologies human CD8 RosetteSep as per manufacturer's instructions. Purified cells were plated at 200,000 per well in triplicate in 96-well U-bottom plates with 200,000 per well of either anti-CD3 or anti-CD3/anti-CD28 Dynabeads (Invitrogen). MEK inhibitors GDC-0973 and G-38963 were titrated 10-fold from 10 μM to 0.001 μM such that the final culture concentration was 0.5% DMSO in a total volume of 200 μl per well. […] Gluta-MAX, sodium pyruvate, penicillin/streptomycin, and non-essential amino acids. At 48 hours, wells were pulsed with 1 μCi/well of 3H-thymidine and cultured an additional 16 hours prior to freezing and harvest.

[6] = system: human melanoma cell lines and human colorectal cell lines; test: Surface MHC-I expression on human tumor cell lines (FACS); type: cell-based; conditions: 1 micromolar, 24 hours, compared to vehicle treated cells
Description: To determine if treatment with MEK inhibitor (MEKi) enhanced immunogenicity of tumor cells, surface expression of MHC-I on tumor cell lines treated with MEK inhibitors GDC-0973 and G-38963 was assayed. Briefly, human melanoma cell lines (Malme-3M, A2058, […][…], SK23, SKMEL-28, 537 Mel, RPMI-795) and human colorectal cell lines (Colo 320 DM, Colo 205, WiDr, Colo 741, RKO, DLD-1, HM7, HCT-15) were treated with 1 micromolar […]-0973 or G-38963, BRAF inhibitor (BRAFi) GDC-0879, or DMSO vehicle for 24 hours. Following treatment, cells were stained for surface MHC Class I expression with an antibody against […] for subsequent FACS analysis. Data shown is for treatment […]-0973. Labeled isotype-matched antibodies were used to determine the level of non-specific staining.

[7] = system: CT26 murine colorectal cells; test: CT26 colorectal tumor model, GDC-0973 dose study (first study); type: in vivo, BALB/c mice
Description: For the first study, female BALB/c mice were inoculated subcutaneously in the unilateral thoracic region with 100,000 CT26 murine colorectal cells in 100 μL of HBSS:matrigel. […] Groups of 10 mice were orally given the following in a volume of 200 μl daily for 21 days: Group 1 received MCT vehicle; Group 2 received 0.5 mg/kg GDC-0973; Group 3 received 1.0 mg/kg GDC-0973; Group 4 received 2.0 mg/kg GDC-0973; Group 5 received 3.0 mg/kg GDC-0973; Group 6 received 4.0 mg/kg GDC-0973; Group 7 received 5.0 mg/kg GDC-0973; Group 8 received 6.0 mg/kg GDC-0973; and Group 9 received 7.5 mg/kg GDC-0973. For both studies, mice were monitored for tumor growth and body weight changes two to three times per week for the duration of the study. […] Fred V. Fowler Company; Newton, Mass.) with length and width measurements perpendicular to one another, and tumor volume was calculated using the equation: Tumor Volume (mm^3)=(Length×Width^2)×0.5 For measurement of body weights, mice were weighed using an Adventura Pro AV812 scale (Ohaus Corporation; Pine Brook, N.J.). Percent body weight change was calculated using the equation: Body weight change (%)=[(WeightDay new−WeightDay 0)/WeightDay 0]×100 Data was analyzed using R, version 2.9.2 (R Development Core Team 2008; R Foundation for Statistical Computing; Vienna, Austria), and the mixed models were fit within R using the nlme package, version 3.1-96 (Pinheiro J et al., R package version 3. 2009, 1-96). Plotting was performed in Prism, version 5.0b for Mac (GraphPad Software, Inc.; La Jolla, Calif.). A mixed modeling approach was used to analyze the repeated measurement of tumor volumes from the same animals over time (Pinheiro J et al., Statistics and Computing, Springer. 2010). This approach addressed both repeated measurements and modest dropouts before study end for reasons classifiable statistically as missing at random (MAR). The fixed effect changes in log2 (volume) by time and dose are modeled as the sum of the main effects and interaction of a natural cubic regression spline basis in time with an auto-determined natural spline basis in dose. Intercepts and growth rates (slopes) were assumed to vary randomly by animal. […] Complete Response (CR) was defined as an individual animal whose tumor volume fell below the Limit of Detection (LOD), at any time during the study. Partial Response (PR) was defined as an individual animal whose tumor volume decreased by 50% of its initial tumor volume at any time during the study. Overall Response Rate (ORR) was defined as the sum of the complete and partial responses. Time To Progression 5X (TTP5X) was defined as the time in days for a group's fitted tumor volume (based upon the mixed modeling analysis described above) to exceed 5 times the starting volume, rounded to the nearest half day and reported as the TTP5X for that group. Linear mixed-effects analysis was also employed to analyze the repeated measurement of body weight changes from the same animals over time.

[8] = system: mouse bone marrow dendritic cells; test: Activation of mouse bone marrow derived dendritic cells (FACS); type: cell-based; conditions: GDC-0973 1 μM, anti-PD-L1 10 μg/ml, 48 hours
Description: Briefly, mouse bone marrow cells were isolated and seeded at 2×10^6 per 10 ml total volume per 10 cm non-tissue culture treated dishes with 40 ng/ml mouse GM-CSF for 7 days. Fresh media was half-exchanged every 2-3 days. Culture medium was RPMI-1640 with 10% fetal bovine serum, 20 μM HEPES, 55 μM 2-mercaptoethanol, 50 μg/ml gentamicin, and 1:100 dilutions of the following supplements from Gibco: Gluta-MAX, sodium pyruvate, penicillin/streptomycin, and non-essential amino acids. On day 7 all cells were harvested and washed, then seeded at 100,000 cells/well in a 96-well flat-bottom plate. MEK inhibitor GDC-0973 was added at a final concentration of 1 μM, anti-PDL1 human/mouse reverse chimera or anti-Ragweed mouse IgG2a isotype control (Genentech PUR 22251) were added at 10 μg/ml. […] After 48 hours of stimulation, cells were harvested and transferred to a 96-well V-bottom plate. Samples were first Fc receptor blocked (purified anti-CD16/CD32 from BD Biosciences, 5 μg/ml) and then stained with I-A/I-E-FITC, H-2Db/H-2Kb-biotin (followed by streptavidin-PE), CD11c-APC, CD86-FITC, and CD80-PE (all from BD Biosciences). Propidium iodide was included to exclude dead cells. Samples were run on a BD FACSCaliber flow cytometer and data was analyzed using FlowJo software (Tree Star, Inc.).

[9] = system: serum IL-10 and KC in tumor bearing animals; test: Serum cytokine levels in tumor bearing mice (Bio-Plex); type: in vivo; conditions: melanoma and colorectal models, 7 days after treatment
Text: Briefly, 7 days after treatment, mice were anaesthetized and bled retro-orbitally for serum.

[10] = system: Cloudman S91 melanoma tumors; test: Melanoma tumor mouse model; type: in vivo, mice; conditions: anti-PD-L1 10 mg/kg ip 3x/week for 3 weeks; G-38963 75 mg/kg orally daily 21 days
Description: (§1) To determine if MEKi enhanced the anti-tumor effect of anti-PD-L1 antibodies, mouse models for melanoma tumors were treated with the combination treatment. Briefly, mice were inoculated subcutaneously with tumor cells and allowed to grow tumors. When tumor bearing mice achieved a mean tumor volume of 100-200 mm3, mice were randomly assigned to 1 of 4 treatment groups. […] Mice were monitored for tumor growth and body weight changes.

[11] = system: colorectal tumors; test: Colorectal tumor mouse model, G-38963 and anti-PD-L1; type: in vivo, mice; conditions: early (200 mm3) or late (450 mm3) intervention; anti-PD-L1 10 mg/kg ip 3x/week for 3 weeks; G-38963 75 mg/kg orally daily 21 days
Description: as §1, with “colorectal” for “melanoma”, “200 mm3 (FIG. 7A) or 450 mm3 (FIG. 7B),” for “100-200 mm3,”

O=C(c1ccc(F)c(F)c1Nc1ccc(I)cc1F)N1CC(O)([C@@H]2CCCCN2)C1 [GDC-0973, Methanone, [3,4-difluoro-2-[(2-fluoro-4-iodophenyl)amino]phenyl][3-hydroxy-3-(2S)-2-piperidinyl-1-azetidinyl]-]
% CR [1]: 0% | % PR [1]: 10% | % TGI [1]: 71% | TTP5X [1]: 21.5 days | cell surface expression of MHC-I [2]: upregulated | cell surface expression of MHC-I [3]: not upregulated | frequency of cells expressing CD83, MHC-II and CD86 ([4]; 1 μM, anti-CD40, 48 hours, compared to vehicle): increased | frequency of DCs expressing surface markers of DC maturation and activation [4]: enhanced the frequency of DCs expressing these surface markers | T cell receptor induced proliferation, anti-CD3 stimulation [5]: nearly complete inhibition | T cell activation, co-stimulation with anti-CD3 and anti-CD28 [5]: sufficient to overcome the inhibitory effect of MEKi | T cell proliferation, anti-CD3 stimulation [5]: reduced the stimulatory effect of anti-CD3 | cell surface expression of MHC-I [6]: upregulated | % TGI ([7]; 0.5 mg/kg orally daily for 21 days): −8% | % TGI ([7]; 1.0 mg/kg orally daily for 21 days): −16% | % TGI ([7]; 2.0 mg/kg orally daily for 21 days): −21% | % TGI ([7]; 3.0 mg/kg orally daily for 21 days): −4% | % TGI ([7]; 4.0 mg/kg orally daily for 21 days): 27% | % TGI ([7]; 5.0 mg/kg orally daily for 21 days): 55% | % TGI ([7]; 6.0 mg/kg orally daily for 21 days): 72% | % TGI ([7]; 7.5 mg/kg orally daily for 21 days): 87% | tumor growth ([7]; increasing doses, maximal inhibition at 7.5 mg/kg at 20 days post-treatment): suppressed tumor growth | DC surface activation markers MHC-II, CD80, CD86 [8]: enhanced | DC surface expression of MHC-I [8]: enhanced

O=C(NOCCO)c1oc2ccncc2c1Nc1ccc(I)cc1F [Compound G-38963]
serum IL-10 level [9]: decreased | cell surface expression of MHC-I [2]: upregulated | frequency of DCs expressing surface markers of DC maturation and activation [4]: enhanced the frequency of DCs expressing these surface markers | T cell receptor induced proliferation, anti-CD3 stimulation [5]: nearly complete inhibition | T cell activation, co-stimulation with anti-CD3 and anti-CD28 [5]: sufficient to overcome the inhibitory effect of MEKi | T cell proliferation, anti-CD3 stimulation [5]: reduced the stimulatory effect of anti-CD3 | tumor growth [10]: highly effective as a single agent therapy at preventing tumor growth | cell surface expression of MHC-I [6]: upregulated | tumor growth [11]: highly effective as a single agent therapy at preventing tumor growth
